In ChEMBL document CHEMBL5380790 (J Med Chem, 2023):
In brackets after ≈: the same amount, converted by molar mass. Activity calls are given as the source filed them. The rule behind the calls is not given here.

Experiments:
[1] = Solubility of compound in FaSSIF at pH 6.5; type: physicochemical
[2] = target: hERG (KCNH2) potassium channel (Homo sapiens, UniProt Q12809); test: Inhibition of human ERG potassium channel transfected in HEK293 cells at holding potential -80 mV at 10 uM and measured for 5 mins by whole cell patch clamp assay; type: toxicity, cell-based; details: HEK293 cells transfected with hERG
[3] = Octanol-water distribution coefficient, logD of the compound at pH 7.4; type: physicochemical
[4] = target: T1, Platelet-derived growth factor receptor beta (Homo sapiens, UniProt P09619); test: Inhibition of PDGFRB (unknown origin) at 1 uM using 33P-ATP as substrate incubated for 120 mins by radiometric kinase assay
T1 sequence (P09619 whole entry): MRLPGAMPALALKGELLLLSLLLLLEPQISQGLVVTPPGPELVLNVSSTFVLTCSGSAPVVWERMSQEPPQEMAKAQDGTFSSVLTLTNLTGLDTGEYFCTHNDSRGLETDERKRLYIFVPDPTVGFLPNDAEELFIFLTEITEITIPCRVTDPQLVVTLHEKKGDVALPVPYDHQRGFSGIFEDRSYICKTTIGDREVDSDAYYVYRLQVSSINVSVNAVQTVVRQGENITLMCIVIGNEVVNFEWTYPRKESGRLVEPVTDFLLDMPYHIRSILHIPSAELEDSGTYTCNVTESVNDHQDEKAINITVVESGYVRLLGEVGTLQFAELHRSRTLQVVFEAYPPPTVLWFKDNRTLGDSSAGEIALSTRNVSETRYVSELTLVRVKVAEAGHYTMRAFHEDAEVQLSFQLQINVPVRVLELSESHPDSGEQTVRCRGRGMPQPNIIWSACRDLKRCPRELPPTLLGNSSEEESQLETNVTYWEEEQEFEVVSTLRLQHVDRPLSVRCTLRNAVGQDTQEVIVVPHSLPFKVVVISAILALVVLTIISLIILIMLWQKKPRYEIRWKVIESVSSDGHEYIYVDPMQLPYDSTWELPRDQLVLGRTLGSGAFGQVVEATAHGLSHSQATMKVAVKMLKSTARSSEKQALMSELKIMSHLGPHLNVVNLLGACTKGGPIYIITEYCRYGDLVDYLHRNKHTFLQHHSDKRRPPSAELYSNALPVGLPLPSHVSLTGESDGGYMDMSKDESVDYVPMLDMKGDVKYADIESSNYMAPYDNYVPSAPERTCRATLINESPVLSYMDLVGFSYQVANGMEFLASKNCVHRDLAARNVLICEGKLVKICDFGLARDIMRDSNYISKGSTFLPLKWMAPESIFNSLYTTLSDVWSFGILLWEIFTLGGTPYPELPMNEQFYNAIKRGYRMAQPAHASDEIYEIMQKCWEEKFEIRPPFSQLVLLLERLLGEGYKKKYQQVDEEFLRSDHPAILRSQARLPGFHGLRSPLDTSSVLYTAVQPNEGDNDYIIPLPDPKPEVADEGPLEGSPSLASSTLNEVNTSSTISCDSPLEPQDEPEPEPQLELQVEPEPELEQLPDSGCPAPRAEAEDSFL

[5] = target: Mast/stem cell growth factor receptor Kit (Homo sapiens, UniProt P10721); test: Inhibition of wild type KIT (unknown origin) at 1 uM using 33P-ATP as substrate incubated for 120 mins by radiometric kinase assay
Mast/stem cell growth factor receptor Kit (Homo sapiens, UniProt P10721), sequence (P10721 whole entry): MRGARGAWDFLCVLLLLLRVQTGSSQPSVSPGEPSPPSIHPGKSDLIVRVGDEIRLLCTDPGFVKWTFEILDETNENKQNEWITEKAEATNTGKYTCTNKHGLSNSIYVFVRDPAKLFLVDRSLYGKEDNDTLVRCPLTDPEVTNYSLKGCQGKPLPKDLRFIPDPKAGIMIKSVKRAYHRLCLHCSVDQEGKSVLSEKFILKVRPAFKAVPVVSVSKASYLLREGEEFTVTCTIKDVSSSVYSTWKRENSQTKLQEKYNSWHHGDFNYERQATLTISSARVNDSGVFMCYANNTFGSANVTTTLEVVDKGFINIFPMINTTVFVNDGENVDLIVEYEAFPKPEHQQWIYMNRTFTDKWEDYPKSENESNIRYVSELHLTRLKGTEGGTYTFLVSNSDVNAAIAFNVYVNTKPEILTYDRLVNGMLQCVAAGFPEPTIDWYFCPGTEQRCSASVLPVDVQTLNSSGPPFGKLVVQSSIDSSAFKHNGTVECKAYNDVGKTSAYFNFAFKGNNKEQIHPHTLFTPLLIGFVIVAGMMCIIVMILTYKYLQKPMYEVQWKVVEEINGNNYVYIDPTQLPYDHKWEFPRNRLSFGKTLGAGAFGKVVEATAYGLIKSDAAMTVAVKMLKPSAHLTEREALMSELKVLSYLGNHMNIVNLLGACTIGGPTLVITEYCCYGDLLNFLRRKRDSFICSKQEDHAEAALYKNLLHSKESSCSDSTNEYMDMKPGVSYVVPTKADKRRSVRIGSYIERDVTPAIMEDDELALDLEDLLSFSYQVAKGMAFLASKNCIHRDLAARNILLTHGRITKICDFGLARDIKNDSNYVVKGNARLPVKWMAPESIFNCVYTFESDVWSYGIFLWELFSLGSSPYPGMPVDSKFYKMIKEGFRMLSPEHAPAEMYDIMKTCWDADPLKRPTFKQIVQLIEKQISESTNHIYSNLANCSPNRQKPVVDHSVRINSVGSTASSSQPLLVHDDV

[6] = target: T2, Tyrosine-protein kinase Lck (Homo sapiens, UniProt P06239); test: Inhibition of LCK (unknown origin) at 1 uM using 33P-ATP as substrate incubated for 120 mins by radiometric kinase assay
[7] = target: Platelet-derived growth factor receptor alpha (Homo sapiens, UniProt P16234); test: Inhibition of PDGFRA (unknown origin) using 33P-ATP as substrate incubated for 120 mins by radiometric kinase assay
Platelet-derived growth factor receptor alpha, sequence (P16234 whole entry): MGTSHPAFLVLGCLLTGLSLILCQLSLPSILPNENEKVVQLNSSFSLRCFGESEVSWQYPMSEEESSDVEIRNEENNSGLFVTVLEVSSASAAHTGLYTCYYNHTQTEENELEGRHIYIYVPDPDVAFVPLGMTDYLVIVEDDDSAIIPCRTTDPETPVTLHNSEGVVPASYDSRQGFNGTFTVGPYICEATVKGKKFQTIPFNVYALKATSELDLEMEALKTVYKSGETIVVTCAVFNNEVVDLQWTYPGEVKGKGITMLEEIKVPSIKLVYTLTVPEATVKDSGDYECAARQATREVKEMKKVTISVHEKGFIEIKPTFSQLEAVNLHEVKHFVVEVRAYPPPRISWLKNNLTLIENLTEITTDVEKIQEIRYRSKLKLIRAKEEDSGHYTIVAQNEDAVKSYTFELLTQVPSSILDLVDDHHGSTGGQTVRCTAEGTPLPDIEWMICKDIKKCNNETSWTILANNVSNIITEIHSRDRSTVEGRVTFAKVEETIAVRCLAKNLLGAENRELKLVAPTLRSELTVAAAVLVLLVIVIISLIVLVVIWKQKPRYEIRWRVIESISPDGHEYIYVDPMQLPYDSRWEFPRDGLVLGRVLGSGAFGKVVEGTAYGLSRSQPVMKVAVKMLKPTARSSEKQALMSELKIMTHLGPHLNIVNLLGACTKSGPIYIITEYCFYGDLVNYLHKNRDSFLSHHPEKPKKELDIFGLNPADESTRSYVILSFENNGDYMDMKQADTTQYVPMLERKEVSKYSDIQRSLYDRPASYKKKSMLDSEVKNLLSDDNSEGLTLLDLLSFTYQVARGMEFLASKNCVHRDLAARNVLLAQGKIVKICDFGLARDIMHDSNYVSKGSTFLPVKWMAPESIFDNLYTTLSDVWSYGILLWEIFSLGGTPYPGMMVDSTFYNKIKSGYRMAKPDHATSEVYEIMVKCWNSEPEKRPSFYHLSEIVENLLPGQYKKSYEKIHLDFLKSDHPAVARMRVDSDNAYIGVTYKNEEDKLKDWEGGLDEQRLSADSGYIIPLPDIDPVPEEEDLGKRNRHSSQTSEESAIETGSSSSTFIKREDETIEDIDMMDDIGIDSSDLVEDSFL

[8] = target: T1, Platelet-derived growth factor receptor beta; test: Inhibition of PDGFRB (unknown origin) using 33P-ATP as substrate incubated for 120 mins by radiometric kinase assay
[9] = target: T3, Receptor-type tyrosine-protein kinase FLT3 (Homo sapiens, UniProt P36888); test: Inhibition of FLT3 (unknown origin) using 33P-ATP as substrate incubated for 120 mins by radiometric kinase assay
T3 sequence (P36888 whole entry): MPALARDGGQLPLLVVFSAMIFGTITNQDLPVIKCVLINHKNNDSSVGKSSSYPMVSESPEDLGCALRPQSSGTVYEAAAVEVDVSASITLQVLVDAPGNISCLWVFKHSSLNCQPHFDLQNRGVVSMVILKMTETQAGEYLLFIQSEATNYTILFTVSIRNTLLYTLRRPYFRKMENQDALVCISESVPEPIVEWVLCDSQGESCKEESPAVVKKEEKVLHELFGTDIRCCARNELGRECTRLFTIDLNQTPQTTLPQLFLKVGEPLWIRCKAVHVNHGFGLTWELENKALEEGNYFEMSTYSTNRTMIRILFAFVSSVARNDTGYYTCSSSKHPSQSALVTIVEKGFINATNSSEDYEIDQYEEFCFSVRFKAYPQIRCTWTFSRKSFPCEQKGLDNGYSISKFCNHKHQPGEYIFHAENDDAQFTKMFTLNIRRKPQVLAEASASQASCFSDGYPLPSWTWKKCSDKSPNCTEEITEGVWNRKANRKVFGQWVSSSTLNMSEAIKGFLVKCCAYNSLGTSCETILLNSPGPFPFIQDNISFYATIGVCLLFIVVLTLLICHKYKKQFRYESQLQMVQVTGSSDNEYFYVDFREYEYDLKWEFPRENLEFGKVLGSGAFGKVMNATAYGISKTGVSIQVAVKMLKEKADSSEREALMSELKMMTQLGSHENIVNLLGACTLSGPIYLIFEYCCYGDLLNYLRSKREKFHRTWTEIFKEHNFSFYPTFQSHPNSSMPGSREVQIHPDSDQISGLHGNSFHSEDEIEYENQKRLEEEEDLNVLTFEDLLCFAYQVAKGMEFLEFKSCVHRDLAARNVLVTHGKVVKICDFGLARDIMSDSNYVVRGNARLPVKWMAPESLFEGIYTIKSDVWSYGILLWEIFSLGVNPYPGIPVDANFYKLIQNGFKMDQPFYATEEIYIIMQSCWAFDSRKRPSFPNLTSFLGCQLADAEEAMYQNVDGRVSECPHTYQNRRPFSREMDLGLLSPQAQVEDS

[10] = target: Macrophage colony-stimulating factor 1 receptor (Homo sapiens, UniProt P07333); test: Inhibition of CSF1R (unknown origin) using 33P-ATP as substrate incubated for 120 mins by radiometric kinase assay
[11] = target: T2, Tyrosine-protein kinase Lck; test: Inhibition of LCK (unknown origin) using 33P-ATP as substrate incubated for 120 mins by radiometric kinase assay
Target sequence in this assay (P06239 whole entry): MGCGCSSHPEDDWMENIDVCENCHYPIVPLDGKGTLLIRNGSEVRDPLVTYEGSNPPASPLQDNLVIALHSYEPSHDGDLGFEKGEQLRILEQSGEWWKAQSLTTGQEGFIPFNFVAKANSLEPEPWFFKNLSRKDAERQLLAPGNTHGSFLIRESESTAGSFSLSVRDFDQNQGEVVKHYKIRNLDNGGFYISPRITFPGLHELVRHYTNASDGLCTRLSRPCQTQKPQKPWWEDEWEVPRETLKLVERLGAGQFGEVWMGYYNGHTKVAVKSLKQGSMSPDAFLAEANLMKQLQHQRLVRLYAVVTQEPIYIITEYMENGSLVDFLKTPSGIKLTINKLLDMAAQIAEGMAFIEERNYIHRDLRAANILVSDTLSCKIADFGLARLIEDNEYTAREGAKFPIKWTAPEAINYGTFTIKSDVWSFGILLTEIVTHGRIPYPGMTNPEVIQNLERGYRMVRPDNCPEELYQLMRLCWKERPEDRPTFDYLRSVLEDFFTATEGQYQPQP

[12] = target: Receptor-type tyrosine-protein kinase FLT3 (Homo sapiens) (UniProt P36888); test: Binding affinity to human FLT3 in human HEK293 cells at 1 uM by NanoBRET assay; type: cell-based
[13] = Plasma clearance in CD-1 mouse at 0.2 mg/kg, iv and measured upto 24 hrs; type: ADME, organism-based
[14] = Half life in CD-1 mouse at 0.2 mg/kg, iv and measured upto 24 hrs; type: ADME, organism-based; details: in vivo
[15] = Oral bioavailability in CD-1 mouse at 10 mg/kg and measured upto 24 hrs; type: ADME, organism-based; details: in vivo
[16] = Plasma clearance in Han Wistar rat at 0.2 mg/kg, iv and measured upto 24 hrs; type: ADME, organism-based
[17] = Volume of distribution at steady state in Han Wistar rat at 0.2 mg/kg, iv and measured upto 24 hrs; type: ADME, organism-based; details: in vivo, read-out: Vdss
[18] = Oral biovailability in Han Wistar rat at 30 mg/kg and measured upto 24 hrs; type: ADME, organism-based; details: in vivo
[19] = Volume of distribution at steady state in Beagle dog at 0.2 mg/kg, iv and measured upto 24 hrs; type: ADME, organism-based, Canis lupus familiaris; details: in vivo, read-out: Vdss
[20] = Plasma clearance in Cynomolgus monkey at 0.2 mg/kg, iv and measured upto 24 hrs; type: ADME, organism-based, Macaca fascicularis
[21] = test system: Mast/stem cell growth factor receptor Kit (Homo sapiens), P10721 [UNDEFINED MUTATION]; test: Inhibition of recombinant human KIT (557 to 558 residues) activating deletion mutant in exon 11 using polyGT and ATP as substrate preincubated for 20 mins followed by substrate addition and measured after 240 mins by FRET assay; details: time 260.0 min
Mast/stem cell growth factor receptor Kit (Homo sapiens), P10721 [UNDEFINED MUTATION], sequence (P10721 whole entry, looked up, stated change not applied, the tested form may be a part): as the sequence (P10721 whole entry) above

[22] = test system: Mast/stem cell growth factor receptor Kit (Homo sapiens), P10721 [V559A]; test: Inhibition of recombinant human KIT V559A mutant in exon 11 using polyGT and ATP as substrate preincubated for 20 mins followed by substrate addition and measured after 240 mins by FRET assay; details: time 260.0 min
Mast/stem cell growth factor receptor Kit (Homo sapiens), P10721 [V559A], sequence (P10721 whole entry V559A): as the sequence (P10721 whole entry) above, with V559A counted along it

[23] = test system: Mast/stem cell growth factor receptor Kit (Homo sapiens), P10721 [V560G]; test: Inhibition of recombinant human KIT V560G mutant in exon 11 using polyGT and ATP as substrate preincubated for 20 mins followed by substrate addition and measured after 240 mins by FRET assay; details: time 260.0 min
Mast/stem cell growth factor receptor Kit (Homo sapiens), P10721 [V560G], sequence (P10721 whole entry V560G): as the sequence (P10721 whole entry) above, with V560G counted along it

[24] = test system: Mast/stem cell growth factor receptor Kit (Homo sapiens), P10721 [T670I]; test: Inhibition of recombinant human KIT T670I mutant in exon 14 using polyGT and ATP as substrate preincubated for 20 mins followed by substrate addition and measured after 240 mins by FRET assay; details: time 260.0 min
Mast/stem cell growth factor receptor Kit (Homo sapiens), P10721 [T670I], sequence (P10721 whole entry T670I): as the sequence (P10721 whole entry) above, with T670I counted along it

[25] = target: Mast/stem cell growth factor receptor Kit (Homo sapiens, UniProt P10721, N822K); test: Inhibition of KIT N822K mutant autophosphorylation in human Kasumi 1 cells harboring KIT N822K mutation in exon 17 incubated for 45 mins by Luminex-based bead assay; type: cell-based
Mast/stem cell growth factor receptor Kit (Homo sapiens, UniProt P10721, N822K), sequence (P10721 26-976 N822K limits assumed): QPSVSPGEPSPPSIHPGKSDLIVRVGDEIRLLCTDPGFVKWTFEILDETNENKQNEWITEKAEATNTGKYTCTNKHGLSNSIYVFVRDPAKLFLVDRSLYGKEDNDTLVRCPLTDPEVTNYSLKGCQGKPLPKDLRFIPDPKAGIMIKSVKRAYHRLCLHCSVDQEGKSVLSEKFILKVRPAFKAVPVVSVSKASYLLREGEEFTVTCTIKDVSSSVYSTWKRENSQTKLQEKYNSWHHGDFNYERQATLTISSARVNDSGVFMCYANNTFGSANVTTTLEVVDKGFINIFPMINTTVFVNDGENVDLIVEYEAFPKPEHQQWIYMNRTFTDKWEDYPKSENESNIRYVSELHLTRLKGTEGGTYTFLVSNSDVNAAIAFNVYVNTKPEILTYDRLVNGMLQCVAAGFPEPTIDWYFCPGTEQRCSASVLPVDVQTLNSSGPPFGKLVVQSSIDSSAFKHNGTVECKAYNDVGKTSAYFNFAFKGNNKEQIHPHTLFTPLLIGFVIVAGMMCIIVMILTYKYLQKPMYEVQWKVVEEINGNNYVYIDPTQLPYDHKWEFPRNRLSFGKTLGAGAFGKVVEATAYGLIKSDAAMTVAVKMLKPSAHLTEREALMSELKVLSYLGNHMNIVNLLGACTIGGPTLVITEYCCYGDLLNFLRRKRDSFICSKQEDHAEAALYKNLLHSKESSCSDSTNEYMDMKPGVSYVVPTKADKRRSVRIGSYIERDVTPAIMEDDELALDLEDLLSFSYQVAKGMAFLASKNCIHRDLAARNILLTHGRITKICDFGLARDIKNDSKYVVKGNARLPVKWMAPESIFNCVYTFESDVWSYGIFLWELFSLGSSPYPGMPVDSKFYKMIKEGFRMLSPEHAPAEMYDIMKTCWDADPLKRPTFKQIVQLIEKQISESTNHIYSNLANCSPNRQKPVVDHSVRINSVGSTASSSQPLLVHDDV

GIST430 = type: functional, cell-based; details: Homo sapiens, dose 10.0 µM
GIST-430/654 = type: functional, organism-based; details: Homo sapiens, dose 35.0 mg/kg, route po, time 30.0 day

- solubility [1]: 374 µg/mL (≈ 735 µM)
- logD [3]: 2.6
- inhibition [4]: > 80%
- inhibition [5]: > 80%
- inhibition [6]: > 80%
- IC50 [7]: 50 nM
- IC50 [8]: 2.6 nM
- IC50 [9]: 141 nM
- IC50 [10]: 5.5 nM
- IC50 [11]: 141 nM
- Activity [12]: 45%
- clearance [13]: 18.3 mL/min/kg
- half-life [14]: 414 min
- bioavailability [15]: 46%
- clearance [16]: 36.7 mL/min/kg
- Vd [17]: 23.2 L/kg
- bioavailability [18]: 63%
- Vd [19]: 34.6 L/kg
- clearance [20]: 36.7 mL/min/kg
- inhibition [21]: Active
- inhibition [22]: Active
- inhibition [23]: Active
- inhibition [24]: inactive
- IC50 [25]: 4 nM
SMILES: Cn1cc(-c2ccc(CNc3cc(-c4cnc5cc(OCCCN6CCCC6)ccn45)ncn3)cc2)cn1 [IDRX-42]
- inhibition at 5 min, 10 µM [2]: -86%
- Activity (GIST430): inactive
- Activity (GIST-430/654): Active
